Common to all, as to assay type: in vivo, Lewis rats
For assay [1], the system named is Endotoxin-induced uveitis. Description: Endotoxin-induced uveitis, clinical score at slit lamp. Conditions: for severity of uveitis (clinical examination): slit lamp 24 hours after LPS. The protocol:
Female Lewis rats (6- to 8-week old) weighing 230-250 g (Elevage Janvier, Le Genest Saint Isle, France) were used and handled in accordance with the ARVO Statement for the Use of Animals in Ophthalmic and Vision Research. Rats were anesthetized with intramuscular injection of ketamine (75 mg kg^−1; Virbac, Carros Cedex, France) and Largactil (0.5 mg kg^−1; Sanofi-aventis, Paris, France) before ocular injection and ET. At the end of the experiments, rats were anesthetized by intraperitoneal injection of pentobarbital (30 mg kg^−1; Sanofi-aventis) before blood collection by intracardiac puncture and then killed with a lethal dose of pentobarbital.
Endotoxin-induced uveitis was induced by footpad injection of 0.1 ml sterile pyrogen-free saline containing 500 μgkg^−1 LPS (from Salmonella typhimurium; Sigma-Aldrich). Animals were examined by slit lamp during the maximal severity of EIU developing in this model 24 h after the footpad injection. The intensity of clinical ocular inflammation was scored on a scale from 0 to 5 for each eye as described previously (Behar-Cohen F F, Parel J M, Pouliquen Y, Thillaye-Goldenberg B, Goureau O, Heydolph S et al. Iontophoresis of dexamethasone in the treatment of endotoxin-induced-uveitis in rats. Exp Eye Res 1997; 65: 533-545.): grade (0) indicates no inflammation; grade 1 indicates the presence of a minimal iris and conjunctival vasodilation but without the observation of flare or cells in the anterior chamber (AC); grade 2 indicates the presence of moderate iris and conjunctival vessel dilation but without evident flare or cells in the AC; grade 3 indicates the presence of intense iris vessels dilation, flare and less than 10 cells per slit lamp field in the AC; grade 4 indicates the presence of more severe clinical signs than grade 3, with more than 10 cells in the AC with or without the formation of a hypopyon; grade 5 indicates the presence of intense inflammatory reaction, fibrin formation in the AC and total seclusion of the pupil.
Clinical evaluation was performed in a masked manner by two observers. The mean clinical score of the two observers was recorded.
Lewis rats were anesthetized by intraperitoneal injection of 0.15 mL pentobarbital (5.47 g/100 mL saline). Pupils were dilated by instillation of one drop of tropicamide 5%. One drop of tetracaine 1% was administered for local anesthesia. Intravitreal injections (10 μL) of aldosterone (20 nM and 200 nM) and spironolactone (10 μM) were performed in both eyes using sterile syringes fitted with a 30-gauge needle (Microfine; Becton Dickinson AG, Meylan, France). Intravitreal injections were performed simultaneously with EIU induction, as described.
Results are expressed as mean±SEM. The Mann-Whitney U test was used to determine differences between groups. […]

Assay [2] concerns MIP1α/CCL3. The assay can be described thus: Chemokine/cytokine multiplex assay of ocular media in EIU: MIP1α/CCL3. Conditions: compared with control animals treated with the vehicle alone (FIG. 2). The protocol: (§1) Aqueous humor and vitreous collected from each eye were pooled, diluted to obtain a final volume of 25 μL, and subjected to multiplex bead analysis. This method uses microspheres as the solid support for immunoassays (Vignali D A. Multiplexed particle-based flow cytometric assays. J Immunol Methods. 2000; 243:243-255.) and allows the titration of a greater number of cytokines with increased sensitivity than occurs with ELISA (Ooi K G, Galatowicz G, Towler H M, Lightman S L, Calder V L. Multiplex cytokine detection versus ELISA for aqueous humor: IL-5, IL-10, and IFNγ profiles in uveitis. Invest Ophthalmol Vis Sci. 2006; 47:272-277.). The rat cytokine/chemokine LINCO-16plex kit (Linco Research) was purchased from Invitrogen (Cergy-Pontoise, France). Chemokine MIP1α/CCL3, proinflammatory mediator TNF-α, cytokines IFN-γ/IL-4, and IL-6 were measured according to the manufacturer's instructions. The assay was performed in a 96-well filter plate with all the assay components provided in the kit. Standard curves for each cytokine were generated with a calibration kit (Bio-Rad, Hercules, Calif.). All incubation steps were performed at room temperature with medium orbital agitation and in the dark to protect the beads from light. Data acquisition and analysis were performed with the manager software version 4.1 (Bioplex; Bio-Rad) with four or five logistic parameters for standard curves. […]

In assay [3] the test system is TNF-α. Description: Chemokine/cytokine multiplex assay of ocular media in EIU: TNF-α. Conditions: compared with control animals treated with the vehicle alone (FIG. 2). As for the experimental part: as §1
Assay [4] relates to IFN-γ/IL-4. The assay can be described thus: Chemokine/cytokine multiplex assay of ocular media in EIU: IFN-γ/IL-4. Conditions: compared with control animals treated with the vehicle alone (FIG. 2). As for the experimental part: as §1
Assay [5] deals with IL-6. The assay can be described thus: Chemokine/cytokine multiplex assay of ocular media in EIU: IL-6. Conditions: compared with control animals treated with the vehicle alone (FIG. 2). The protocol: as §1
Assay [6] deals with macrophages. Description: EDI positive cell counts in histological sections (immunohistochemistry) in EIU. Conditions: intravitreal 200 nM, 24 h after LPS, compared to eyes injected vehicle or spironolactone, p<0.05. The protocol: To evaluate the effect of intravitreal injection of 200 nM aldosterone and spironolactone 10 μM, immunohistochemical studies were performed on cryostat sections. An anti EDI antibody coupled with an Alexa488 secondary antibody was used to mark macrophages which are among the cells most involved in EIU. We conducted an EDI positive cell counts in histological sections 24 h after LPS injection and intravitreal injection of aldosterone or spironolactone.

Assay [7] has as its system resident microglial cells of the retina and ciliary body. Description: Anti-IBA-1 immunohistochemistry of resident microglial cells in EIU. Conditions: 24 h after LPS and intravitreal injection, compared to eyes injected with the vehicle. The protocol: To evaluate the effect of aldosterone on resident microglial cells of the retina and ciliary body, we performed immunohistochemical studies with an anti-IBA-1 antibody coupled with a secondary antibody Alexa488 on cryostat sections 24 h after LPS injection and injection intravitreal aldosterone or spironolactone. […] The anti-inflammatory effect of aldosterone may be related to the deactivation of resident microglial cells.

In assay [8] the test system is blood-ocular barrier. Description: Proteins present in eye fluids (leaking of the blood-ocular barrier) in EIU. Conditions: at 6 hours, versus vehicle. From the text: Proteins present in eye fluids reflect the leaking of the blood-ocular barrier.
The test system of assay [9] is MR. The assay can be described thus: Expression of MR in the iris and ciliary body in EIU (quantitative PCR). Conditions: after intravitreal injection in EIU, p<0.05. As for the experimental part: (§2) Iris and ciliary body tissues are most involved in the EIU. In an attempt to understand the role of MR and GR in EIU model, we evaluated the expression of these two receptors in quantitative PCR in the iris/ciliary body 3 h, 6 h and 24 h after injection of LPS. We were surprised that the kinetics of MR and GR were not similar. 3 hours after induction of EIU (p<0.001), so before the infiltration of inflammatory cells, there was a decreased expression of MR, which was maintained up to 24 hours (p<0.001). On the contrary the decreased expression of GR was later in the 24th hour (p<0.01). Immunohistochemical studies confirmed the decrease in the rate of receptors in the iris. The decreased expression of MR and GR takes place mainly in the endothelial cells of vessels in the iris and iris stromal cells. At baseline, the binding of endogenous glucocorticoids to MR likely plays a role in anti-inflammatory. The reduction of early MR can be seen as a step prior to the onset of ocular inflammation.
(§3) The expression of MR and GR in the iris and ciliary body is increased after intravitreal injection of aldosterone (p<0.05). […] Presumably, the anti-inflammatory effect of aldosterone in this model is partly due to the increased expression of MR.

In assay [10] the test system is GR. The assay can be described thus: Expression of GR in the iris and ciliary body in EIU (quantitative PCR). Conditions: after intravitreal injection in EIU. As for the experimental part:
as §2, §3

As for `C[C@]12CCC(=O)C=C1CC[C@@H]1[C@@H]2[C@@H](O)C[C@]2(C=O)[C@@H](C(=O)CO)CC[C@@H]12` [aldosterone, 11β,21-dihydroxy-3,20-dioxopregn-4-en-18-al], the “severity of uveitis (clinical examination)” value in assay [1] (injection 1 nM) is reported as “had no effect”; in assay [1] (intravitreal injection 20 nM, p<0.05), “severity decrease statistically significant”; in assay [1] (intravitreal injection 200 nM, p<0.001) it was “severity decrease statistically significant”. Moreover, the “MIP1α/CCL3 in the ocular media” value in assay [2] is given as “significantly reduced”. Besides, the “TNF-α in the ocular media” value in assay [3] is recorded as “significantly reduced”. For the same compound, the “IFN-γ/IL-4 in the ocular media” value in assay [4] is recorded as “significantly reduced”. The “IL-6 in the ocular media” value in assay [5] is recorded as “significantly reduced”. Further, the “number of macrophages (EDI positive cell counts)” value in assay [6] is reported as “decrease in the number of macrophages”. Moreover, the “state of microglial cells (IBA-1)” value in assay [7] is recorded as “greater number of microglial cells were then branched into a latent state”. Also, in assay [8], the “rate of protein in eye fluids” value is “significantly reduced”. In assay [9], the “expression of MR in the iris and ciliary body” value was “increased”. The “expression of GR in the iris and ciliary body” value in [10] is “increased”.
Take `CC(=O)S[C@@H]1CC2=CC(=O)CC[C@]2(C)[C@H]2CC[C@@]3(C)[C@@H](CC[C@@]34CCC(=O)O4)[C@H]12` [spironolactone]: the “intensity of uveitis (clinical examination)” value in assay [1] (intravitreal injection 10 microM, 24 hours) is given as “increased the intensity of uveitis”. Also, in assay [2], the “MIP1α/CCL3 in the ocular media” value was “significantly increased”. Further, the “TNF-α in the ocular media” value in [3] is “significantly increased”. Also, the “IFN-γ/IL-4 in the ocular media” value in [4] is listed as “significantly increased”. In addition, the “IL-6 in the ocular media” value in [5] was “significantly increased”. In addition, the “state of microglial cells (IBA-1)” value in assay [7] was “larger number of microglial cells were round, and consequently active”. The “rate of protein in eye fluids” value in [8] is reported as “had no effect”. Moreover, in [9], the “expression of MR in the iris and ciliary body” value is on record as “exacerbated the decrease in MR”. Also, the “expression of GR in the iris and ciliary body” value in [10] is “has no effect”.

Source of the values: patent US20150342876A1, “METHODS AND PHARMACEUTICAL COMPOSITIONS FOR THE TREATMENT OF OCULAR INFLAMMATORY DISEASES” (Institut National de la Santé et de la Recherche Médicale …, priority 2011, published 2015).
